Experimental data taken from ChEMBL document CHEMBL1201862, “PubChem BioAssay data set” (2004).
Values joined by “and” are separate entries in the source; they are usually repeats but may differ in a detail not shown here. Identical values can stand only once.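 48-hour exposure; five concentrations; linearly interpolated endpoints. Abbreviation: GI50, concentration required for 50% inhibition of growth.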 Active and inactive are the calls of the source. Rule as the data show it: active = GI50 up to about 1.1 µM and inactive = higher.

Tests used:
Test in all cases: inhibition of tumour cell growth, NCI panel, 48 h
A498 = test system: A498
A549 = test system: A549
ACHN = test system: ACHN
CAKI-1 = test system: CAKI-1
COLO 205 = test system: COLO 205
MCF7 = test system: MCF7
MOLT-4 = test system: MOLT-4
OVCAR-4 = test system: OVCAR-4
SF-539 = test system: SF-539
SK-OV-3 = test system: SK-OV-3
SW-620 = test system: SW-620
U-251 = test system: U-251
UACC-62 = test system: UACC-62
UO-31 = test system: UO-31
K562 = test system: K562
SK-MEL-28 = test system: SK-MEL-28
TK-10 = test system: TK-10
M14 = test system: M14
Malme-3M = test system: Malme-3M
HL-60 = test system: HL-60

| Compound | GI50 (A498) | GI50 (A549) | GI50 (ACHN) | GI50 (CAKI-1) | GI50 (COLO 205) | GI50 (MCF7) | GI50 (MOLT-4) | GI50 (OVCAR-4) | GI50 (SF-539) | GI50 (SK-OV-3) | GI50 (SW-620) | GI50 (U-251) | GI50 (UACC-62) | GI50 (UO-31) | GI50 (K562) | GI50 (SK-MEL-28) | GI50 (TK-10) | GI50 (M14) | GI50 (Malme-3M) | GI50 (HL-60) |
| --- | --- | --- | --- | --- | --- | --- | --- | --- | --- | --- | --- | --- | --- | --- | --- | --- | --- | --- | --- | --- |
| c1csc(C(NC2=NCCO2)C2CC2)c1 (stereo not given) | > 100 µM (inactive) | > 100 µM (inactive) | > 100 µM (inactive) | > 100 µM (inactive) | > 100 µM (inactive) | > 100 µM (inactive) | > 100 µM (inactive) | > 100 µM (inactive) | > 100 µM (inactive) | > 100 µM (inactive) | > 100 µM (inactive) | > 100 µM (inactive) | > 100 µM (inactive) | > 100 µM (inactive) |  |  |  |  |  |  |
| CC(=O)c1c(-c2cccc3ccccc23)c(C#N)c(=S)n(C2OC(CO)C(O)C(O)C2O)c1C (stereo not given) | > 100 µM (inactive) | > 100 µM (inactive) | > 100 µM (inactive) | 53.1 µM (inactive) | > 100 µM (inactive) | > 100 µM (inactive) | 38.9 µM (inactive) and 49.3 µM (inactive) | > 100 µM (inactive) |  | > 100 µM (inactive) | > 100 µM (inactive) |  | 64.7 µM (inactive) | 87.5 µM (inactive) | 43.9 µM (inactive) and 71.6 µM (inactive) | > 100 µM (inactive) | > 100 µM (inactive) |  |  |  |
| CCN(CC)C(=S)SS(=O)(=O)c1cccc(N)c1 | > 100 µM (inactive) | > 100 µM (inactive) | > 100 µM (inactive) | > 100 µM (inactive) | > 100 µM (inactive) | > 100 µM (inactive) | > 100 µM (inactive) | > 100 µM (inactive) | > 100 µM (inactive) | > 100 µM (inactive) | > 100 µM (inactive) | > 100 µM (inactive) | > 100 µM (inactive) | > 100 µM (inactive) | > 100 µM (inactive) | > 100 µM (inactive) | > 100 µM (inactive) | > 100 µM (inactive) | > 100 µM (inactive) |  |
| COc1cc(C[C@@]2(C)[C@@H]3CCC[C@H](CO)[C@@]3(C)CC[C@@H]2C)c(Cl)c(OC)c1 |  | 14.4 µM (inactive) | 16 µM (inactive) | 16.2 µM (inactive) | 15.3 µM (inactive) | 15.5 µM (inactive) | 12.1 µM (inactive) | 15.8 µM (inactive) | 14.7 µM (inactive) | 17.5 µM (inactive) | 29.2 µM (inactive) | 15.5 µM (inactive) | 15.3 µM (inactive) | 16.6 µM (inactive) | 16.3 µM (inactive) | 26.2 µM (inactive) | 19.5 µM (inactive) | 18.3 µM (inactive) | 16.2 µM (inactive) | 17.6 µM (inactive) |
| N[C@@H]1C[C@H](N)c2c(Cl)sc(Cl)c21 | 61.5 µM (inactive) | > 100 µM (inactive) | > 100 µM (inactive) | > 100 µM (inactive) | > 100 µM (inactive) | > 100 µM (inactive) | > 100 µM (inactive) | > 100 µM (inactive) | > 100 µM (inactive) |  | > 100 µM (inactive) | > 100 µM (inactive) | > 100 µM (inactive) | > 100 µM (inactive) | > 100 µM (inactive) | > 100 µM (inactive) |  | > 100 µM (inactive) |  |  |
| ClCCCN(CCCCl)c1ccc(/C=N/c2cccc(Cl)c2)cc1 |  | 10.2 µM (inactive) | 7.26 µM (inactive) | 0.652 µM (active) | 47.6 µM (inactive) | 23.5 µM (inactive) | 14.4 µM (inactive) | 9.75 µM (inactive) | 53.2 µM (inactive) | 49.5 µM (inactive) | 12.9 µM (inactive) | 26.9 µM (inactive) | 1.49 µM (inactive) | 15.8 µM (inactive) | 11.8 µM (inactive) | 55.8 µM (inactive) | 4.48 µM (inactive) | 29.3 µM (inactive) | 6.22 µM (inactive) | 12.6 µM (inactive) |
| CC1OC2OC3C(OCC(O)C3O)OC(=O)[C@]34CCC(C)(C)CC3C3=CCC5[C@@]6(C)C[C@H](O)[C@H](OC7OC(CO)C(O)C(O)C7OC7OCC(OC(=O)CC(C)(O)CC(=O)OC1C(O)C2O)C(O)C7O)[C@@](C)(CO)C6CC[C@@]5(C)[C@]3(C)CC4 (stereo not given in full) |  | 2.24 µM (inactive) | 6.34 µM (inactive) |  | 1.89 µM (inactive) | 13 µM (inactive) | 8.89 µM (inactive) |  | 12.7 µM (inactive) | 3.19 µM (inactive) | 8.85 µM (inactive) | 3.48 µM (inactive) | 4.3 µM (inactive) | 6.03 µM (inactive) |  | 1.96 µM (inactive) | 8.79 µM (inactive) | 2.82 µM (inactive) | 3.68 µM (inactive) | 1.82 µM (inactive) |
| CN(C)CCNC(=O)c1cccc2c(NCC(=O)O)c3ccccc3nc12 | 18.6 µM (inactive) | 7.85 µM (inactive) | 5.82 µM (inactive) |  | 5.21 µM (inactive) | 3.79 µM (inactive) | 4.08 µM (inactive) | 9.82 µM (inactive) |  | 21.1 µM (inactive) | 6.62 µM (inactive) | 24.5 µM (inactive) | 15.1 µM (inactive) | 7.4 µM (inactive) | 14 µM (inactive) | 20.6 µM (inactive) | 31 µM (inactive) | 17 µM (inactive) | 11 µM (inactive) | > 100 µM (inactive) |
| CCOC(=O)c1nc2ccccc2nc1Oc1ccc(OC)cc1 | > 100 µM (inactive) | > 100 µM (inactive) | > 100 µM (inactive) |  | > 100 µM (inactive) | > 100 µM (inactive) | > 100 µM (inactive) | > 100 µM (inactive) | > 100 µM (inactive) | > 100 µM (inactive) | > 100 µM (inactive) | > 100 µM (inactive) | > 100 µM (inactive) | > 100 µM (inactive) | > 100 µM (inactive) | > 100 µM (inactive) | > 100 µM (inactive) | > 100 µM (inactive) | > 100 µM (inactive) | > 100 µM (inactive) |
| CCOC(=O)/C(=C\c1ccnc2ccccc12)P(=O)(OCC)OCC | 1.77 µM (inactive) | 5.31 µM (inactive) | 2.08 µM (inactive) | 2.25 µM (inactive) | 2.17 µM (inactive) | 1.4 µM (inactive) | 4.65 µM (inactive) | 2.26 µM (inactive) | 1.47 µM (inactive) | 4.99 µM (inactive) | 2.52 µM (inactive) | 2.9 µM (inactive) | 2.65 µM (inactive) |  | 5.89 µM (inactive) | 1.57 µM (inactive) | 4.43 µM (inactive) | 1.93 µM (inactive) | 1.33 µM (inactive) |  |
| CCOC(=O)Cc1csc2[n+]1C(=O)/C(=C/c1cccc(OC)c1O)S2 |  | 67.5 µM (inactive) | 69.5 µM (inactive) | 59.2 µM (inactive) | 78.5 µM (inactive) | 45.3 µM (inactive) | 4.43 µM (inactive) | 64.4 µM (inactive) | 60.8 µM (inactive) | > 100 µM (inactive) | > 100 µM (inactive) | 0.192 µM (active) | 97.7 µM (inactive) | 28.7 µM (inactive) |  | 84.9 µM (inactive) | 46.2 µM (inactive) | 77.6 µM (inactive) |  | 45.8 µM (inactive) |
| CCOC(=O)C1=C(N)N(c2ccccc2)/C(=C(/C#N)c2nc3ccccc3[nH]2)S1 | > 100 µM (inactive) | > 100 µM (inactive) | > 100 µM (inactive) | > 100 µM (inactive) | > 100 µM (inactive) |  | > 100 µM (inactive) | > 100 µM (inactive) | > 100 µM (inactive) | > 100 µM (inactive) | > 100 µM (inactive) | > 100 µM (inactive) | > 100 µM (inactive) | > 100 µM (inactive) | > 100 µM (inactive) | > 100 µM (inactive) | > 100 µM (inactive) | > 100 µM (inactive) | > 100 µM (inactive) | > 100 µM (inactive) |
| COc1cc([N+](=O)[O-])c(S(=O)(=O)O)cc1-n1nc(-c2ccccc2)n[n+]1-c1cc(S(=O)(=O)[O-])c([N+](=O)[O-])cc1OC |  | > 100 µM (inactive) | > 100 µM (inactive) | > 100 µM (inactive) | > 100 µM (inactive) | > 100 µM (inactive) | > 100 µM (inactive) | > 100 µM (inactive) | > 100 µM (inactive) | > 100 µM (inactive) | > 100 µM (inactive) | > 100 µM (inactive) | > 100 µM (inactive) | > 100 µM (inactive) | > 100 µM (inactive) | > 100 µM (inactive) |  | > 100 µM (inactive) | > 100 µM (inactive) | > 100 µM (inactive) |
| C#C/C=C\CCCC/C=C\C#CC#CCCCC#CC#C[C@H](COS(=O)(=O)O)OS(=O)(=O)O |  | > 100 µM (inactive) | > 100 µM (inactive) | > 100 µM (inactive) | > 100 µM (inactive) | > 100 µM (inactive) | > 100 µM (inactive) | > 100 µM (inactive) | > 100 µM (inactive) |  | > 100 µM (inactive) | > 100 µM (inactive) | > 100 µM (inactive) | 72.4 µM (inactive) |  | > 100 µM (inactive) | > 100 µM (inactive) | > 100 µM (inactive) |  | > 100 µM (inactive) |
| Oc1ccc(-c2nc3ccc(Br)cc3s2)cc1 |  | 21.7 µM (inactive) | 22.2 µM (inactive) | 15.7 µM (inactive) | 15.9 µM (inactive) | 4.85 µM (inactive) | 33.3 µM (inactive) |  | 14.8 µM (inactive) | 19.5 µM (inactive) | 32.2 µM (inactive) | 20.4 µM (inactive) | 13 µM (inactive) | 14.5 µM (inactive) | 23.5 µM (inactive) |  | 17.3 µM (inactive) | 18.9 µM (inactive) | 27 µM (inactive) | 17 µM (inactive) |
